Measurements taken from US20070128217A1 (priority 2003, published 2007).

Experiments:
[1] = system: recombinant human anti-SARS-CoV antibody 03-018; type: binding; parameters: Binding of antibody 03-018 to linear peptides of the N protein of SARS-CoV Urbani / Binding of antibody 03-018 to looped/cyclic peptides of the N protein of SARS-CoV Urbani: unit not given here
[2] = system: control sera (pooled serum of ten healthy LUMC hospital workers; commercial negative donor pooled serum from the Dutch bloodbank); type: binding, human; parameters: Binding of Control serum LUMC to linear peptides / Binding of Control serum Blood-bank to linear peptides / Binding of Control serum LUMC to looped peptides / Binding of Control Serum Blood-Bank to Looped peptides / Binding of Control serum LUMC to linear peptides of the protein M of SARS-CoV Urbani / Binding of Control serum Blood-bank to linear peptides of the protein M of SARS-CoV Urbani / Binding of Control serum LUMC to looped peptides of the protein M of SARS-CoV Urbani / Binding of Control Serum Blood-Bank to Looped peptides of the protein M of SARS-CoV Urbani: unit not given here
[3] = system: rabbit serum obtained by immunizing a rabbit with the SARS-CoV strain Frankfurt 1; type: binding; parameters: Binding of a rabbit serum to linear peptides / Binding of a rabbit serum to looped peptides / Rabbit serum linear peptides / Rabbit serum looped peptides / Binding of a rabbit serum to linear peptides of protein N of SARS-CoV Urbani (Rabbit serum linear peptides) / Binding of a rabbit serum to looped/cyclic peptides of protein N of SARS-CoV Urbani (Rabbit serum looped peptides): unit not given here
[4] = system: antibodies in sera from SARS patients (sera 1a, 1b, 2, 6, 37, 62, London, SARS-yellow, SARS-green); type: binding, human; parameters: Binding of serum 6 to linear peptides of protein X1 of SARS-CoV Urbani / Binding of serum 37 to linear peptides of protein X1 of SARS-CoV Urbani / Binding of serum 6 to looped/cyclic peptide (PEPSCAN-ELISA) / Binding of serum 37 to looped/cyclic peptide (PEPSCAN-ELISA) / Binding of serum 37 to looped/cyclic peptides of protein X1 of SARS-CoV Urbani / Binding of serum 6 to linear peptides of protein X2 / Binding of serum 37 to linear peptides of protein X2 / Binding of serum 37 to looped/cyclic peptides of protein X2 of SARS-CoV Urbani / Binding of serum 6 to linear peptides of protein M of SARS-CoV Urbani / Binding of serum 37 to linear peptides of protein M of SARS-CoV Urbani / Binding of serum 6 to looped/cyclic peptides of protein M of SARS-CoV Urbani / Binding of serum 37 to looped/cyclic peptides of protein M of SARS-CoV Urbani / Binding of serum 6 to linear peptides of protein X3 of SARS-CoV Urbani / Binding of serum 37 to linear peptides of protein X3 of SARS-CoV Urbani / Binding of serum 37 to looped/cyclic peptides of protein X3 of SARS-CoV Urbani / Binding of serum 6 to linear peptides of protein X4 of SARS-CoV Urbani / Binding of serum 37 to linear peptides of protein X4 of SARS-CoV Urbani / Binding of serum 37 to looped/cyclic peptides of protein X4 of SARS-CoV Urbani / Binding of serum 6 to linear peptides of protein X5 of SARS-CoV Urbani / Binding of serum 37 to linear peptides of protein X5 of SARS-CoV Urbani / Binding of serum 37 to looped/cyclic peptides of protein X5 of SARS-CoV Urbani / Binding of serum 6 to linear peptides of protein N of SARS-CoV Urbani / Binding of serum 37 to linear peptides of protein N of SARS-CoV Urbani / Binding of serum 6 to linear peptide (PEPSCAN-ELISA) / Binding of serum 1a to looped/cyclic peptides of protein N of SARS-CoV Urbani / Binding of serum 1b to looped/cyclic peptides of protein N of SARS-CoV Urbani / Binding of serum 2 to looped/cyclic peptides of protein N of SARS-CoV Urbani / Binding of serum 6 to looped/cyclic peptides of protein N of SARS-CoV Urbani / Binding of serum 37 to looped/cyclic peptides of protein N of SARS-CoV Urbani / Binding of serum 62 to looped/cyclic peptides of protein N of SARS-CoV Urbani / Binding of serum London to looped/cyclic peptides of protein N of SARS-CoV Urbani / Binding of serum SARS-green to looped/cyclic peptides of protein N of SARS-CoV Urbani: unit not given here

## DKKKKTDEAQPLPQR
[1]
  Binding of antibody 03-018 to linear peptides of the N protein of SARS-CoV Urbani: 0.1
  Binding of antibody 03-018 to looped/cyclic peptides of the N protein of SARS-CoV Urbani: 0.2
[2]
  Control Serum Blood-Bank Looped peptides: 0.5
  Control serum Blood-bank linear peptides: 0.8
  Control serum LUMC linear peptides: 0.6
  Control serum LUMC looped peptides: 0.4
[3]
  Binding of a rabbit serum to linear peptides of protein N of SARS-CoV Urbani (Rabbit serum linear peptides): 0.1
  Binding of a rabbit serum to looped/cyclic peptides of protein N of SARS-CoV Urbani (Rabbit serum looped peptides): 0.3
[4]
  Binding of serum 1a to linear peptides of protein N of SARS-CoV Urbani: 0.2
  Binding of serum 1a to looped/cyclic peptides of protein N of SARS-CoV Urbani: 0.2
  Binding of serum 1b to linear peptides of protein N of SARS-CoV Urbani: 0.1
  Binding of serum 1b to looped/cyclic peptides of protein N of SARS-CoV Urbani: 0.1
  Binding of serum 2 to linear peptides of protein N of SARS-CoV Urbani: 0.2
  Binding of serum 2 to looped/cyclic peptides of protein N of SARS-CoV Urbani: 0.2
  Binding of serum 6 to linear peptides of protein N of SARS-CoV Urbani: 0.2
  Binding of serum 6 to looped/cyclic peptides of protein N of SARS-CoV Urbani: 0.1
  Binding of serum 37 to linear peptides of protein N of SARS-CoV Urbani: 0.6
  Binding of serum 37 to looped/cyclic peptides of protein N of SARS-CoV Urbani: 0.4
  Binding of serum 62 to linear peptides of protein N of SARS-CoV Urbani: 0.6
  Binding of serum 62 to looped/cyclic peptides of protein N of SARS-CoV Urbani: 0.3
  Binding of serum London to linear peptides of protein N of SARS-CoV Urbani: 0.5
  Binding of serum London to looped/cyclic peptides of protein N of SARS-CoV Urbani: 0.3
  Binding of serum SARS-green to linear peptides of protein N of SARS-CoV Urbani: 0.5
  Binding of serum SARS-green to looped/cyclic peptides of protein N of SARS-CoV Urbani: 0.3
  Binding of serum SARS-yellow to linear peptides of protein N of SARS-CoV Urbani: 0.6
  Binding of serum SARS-yellow to looped/cyclic peptides of protein N of SARS-CoV Urbani: 0.3

## DMDDFSRQLQNSMSG
[1]
  Binding of antibody 03-018 to linear peptides of the N protein of SARS-CoV Urbani: 0.1
  Binding of antibody 03-018 to looped/cyclic peptides of the N protein of SARS-CoV Urbani: 0.2
[2]
  Control Serum Blood-Bank Looped peptides: 0.4
  Control serum Blood-bank linear peptides: 0.8
  Control serum LUMC linear peptides: 0.6
  Control serum LUMC looped peptides: 0.3
[3]
  Binding of a rabbit serum to linear peptides of protein N of SARS-CoV Urbani (Rabbit serum linear peptides): 0.2
  Binding of a rabbit serum to looped/cyclic peptides of protein N of SARS-CoV Urbani (Rabbit serum looped peptides): 0.4
[4]
  Binding of serum 1a to linear peptides of protein N of SARS-CoV Urbani: 0.2
  Binding of serum 1a to looped/cyclic peptides of protein N of SARS-CoV Urbani: 0.3
  Binding of serum 1b to linear peptides of protein N of SARS-CoV Urbani: 0.2
  Binding of serum 1b to looped/cyclic peptides of protein N of SARS-CoV Urbani: 0.1
  Binding of serum 2 to linear peptides of protein N of SARS-CoV Urbani: 0.2
  Binding of serum 2 to looped/cyclic peptides of protein N of SARS-CoV Urbani: 0.3
  Binding of serum 6 to linear peptides of protein N of SARS-CoV Urbani: 0.3
  Binding of serum 6 to looped/cyclic peptides of protein N of SARS-CoV Urbani: 0.0
  Binding of serum 37 to linear peptides of protein N of SARS-CoV Urbani: 0.8
  Binding of serum 37 to looped/cyclic peptides of protein N of SARS-CoV Urbani: 0.4
  Binding of serum 62 to linear peptides of protein N of SARS-CoV Urbani: 0.7
  Binding of serum 62 to looped/cyclic peptides of protein N of SARS-CoV Urbani: 0.2
  Binding of serum London to linear peptides of protein N of SARS-CoV Urbani: 0.7
  Binding of serum London to looped/cyclic peptides of protein N of SARS-CoV Urbani: 0.2
  Binding of serum SARS-green to linear peptides of protein N of SARS-CoV Urbani: 0.3
  Binding of serum SARS-green to looped/cyclic peptides of protein N of SARS-CoV Urbani: 0.0
  Binding of serum SARS-yellow to linear peptides of protein N of SARS-CoV Urbani: 0.7
  Binding of serum SARS-yellow to looped/cyclic peptides of protein N of SARS-CoV Urbani: 0.2

## DNGPQSNQRSAPRIT
[1]
  Binding of antibody 03-018 to linear peptides of the N protein of SARS-CoV Urbani: 0.2
  Binding of antibody 03-018 to looped/cyclic peptides of the N protein of SARS-CoV Urbani: 0.3
[2]
  Binding of Control Serum Blood-Bank to Looped peptides: 0.5
  Binding of Control serum Blood-bank to linear peptides: 0.7
  Binding of Control serum LUMC to linear peptides: 0.7
  Binding of Control serum LUMC to looped peptides: 0.4
[3]
  Binding of a rabbit serum to linear peptides of protein N of SARS-CoV Urbani (Rabbit serum linear peptides): 0.1
  Binding of a rabbit serum to looped/cyclic peptides of protein N of SARS-CoV Urbani (Rabbit serum looped peptides): 0.3
[4]
  Binding of serum 1a to linear peptides of protein N of SARS-CoV Urbani: 0.2
  Binding of serum 1a to looped/cyclic peptides of protein N of SARS-CoV Urbani: 0.2
  Binding of serum 1b to linear peptides of protein N of SARS-CoV Urbani: 0.1
  Binding of serum 1b to looped/cyclic peptides of protein N of SARS-CoV Urbani: 0.1
  Binding of serum 2 to linear peptides of protein N of SARS-CoV Urbani: 0.3
  Binding of serum 2 to looped/cyclic peptides of protein N of SARS-CoV Urbani: 0.1
  Binding of serum 6 to linear peptides of protein N of SARS-CoV Urbani: 0.2
  Binding of serum 6 to looped/cyclic peptides of protein N of SARS-CoV Urbani: 0.2
  Binding of serum 37 to linear peptides of protein N of SARS-CoV Urbani: 0.6
  Binding of serum 37 to looped/cyclic peptides of protein N of SARS-CoV Urbani: 0.5
  Binding of serum 62 to linear peptides of protein N of SARS-CoV Urbani: 0.5
  Binding of serum 62 to looped/cyclic peptides of protein N of SARS-CoV Urbani: 0.3
  Binding of serum London to linear peptides of protein N of SARS-CoV Urbani: 0.4
  Binding of serum London to looped/cyclic peptides of protein N of SARS-CoV Urbani: 0.2
  Binding of serum SARS-green to linear peptides of protein N of SARS-CoV Urbani: 0.4
  Binding of serum SARS-green to looped/cyclic peptides of protein N of SARS-CoV Urbani: 0.2
  Binding of serum SARS-yellow to linear peptides of protein N of SARS-CoV Urbani: 0.5
  Binding of serum SARS-yellow to looped/cyclic peptides of protein N of SARS-CoV Urbani: 0.1
